Test results published in US20030120049A1, “Non-selective cation channel” (priority 2000, published 2003).

What was measured:
OTRPC4 [1] = target: T1, OTRPC4 (Mus musculus, UniProt Q9EPK8); experiment: FURA-2 single cell measurement of intracellular calcium in HEK293 cells transiently expressing OTRPC4-GFP; type: cell-based, murine; details: for effect on cells which expressed OTRPC4: 10 μM
T1 construct: expressed in transfected cells; host or cells: HEK293 (transient, FuGENE 6)
Excerpt: The cDNA of OTRPC4 was cloned into a eukaryotic expression plasmid containing, at the C-terminal end, a green fluorescent protein (GFP) fusion section (pEGFP-N1). This plasmid was used for the subsequent expression studies. It can be inferred from the nucleotide sequence that the OTRPC4 protein may consist of 871 amino acids, for example, and contains 6 possible transmembranal segments with a sequence between segments 5 and 6 which possibly codes for a pore region of a channel (FIG. 1a). After transient transfection (which was carried out using the FuGENE 6 transfection reagent) of the expression plasmid coding for the OTRPC4-GFP fusion protein in HEK293 cells, dots of fluorescence could be detected in the plasma membrane 24-36 hours later. […] For the following experiments, HEK293 cells were transiently transfected with the above-mentioned expression plasmid containing OTRPC4 and compared, after 24-36 hours, with untransfected control cells.
The influence of extracellular osmolarity on the channel activity of OTRPC4 was investigated. After reducing the osmolarity of the extracellular solution, there was a long, transient and reversible increase in the [Ca^2+]i in the OTRPC4 expressing cells but not in the control cells (FIG. 5). Increasing the osmolarity of the extracellular solution, on the other hand, reduced the [Ca^2+]i (cf. the small diagram in FIG. 4). A significant change in the [Ca^2+]i was observed even when the extracellular solution was changed by 30 mosmol/l. The changes in [Ca^2+]i triggered by changing the osmolarity of the extracellular solution occurred rapidly and reached a peak after about 30 seconds, but varied from cell to cell (see FIG. 4). After returning to the normoosmolar solution, [Ca^2+]i rapidly returned to its base value. In order to distinguish between an influx of calcium from the extracellular medium and a release of calcium from intracellular calcium stores, calcium was replaced by EGTA in the extracellular medium while the cells were exposed to a hypotonic medium. Under these conditions, the FURA-2 signal returned to the base value (see FIG. 4).
The members of the STRPC subfamily of the TRPC channels are activated by signals produced by the activation of the phospholipase C-β (PCL-β) (6-15).
The addition of capsaicin (10 μM) and resiniferatoxin (10 μM) as well as a brief increase in the temperature to 65° C. had no effect on cells which expressed OTRPC4.

OTRPC4 [2] = target: T1, OTRPC4; experiment: FURA-2 measurement of intracellular Ca2+ with luminiscence spectrometer in OTRPC4 transfected HEK293 cells; type: cell-based, murine; details: 100 μM; osmolarity lowered from 320 mosmol/l to 220 mosmol/l
Experimental: For testing the function of OTRPC4 transfected HEK293 cells with a further method, intracellular Ca^2+ concentration was measured with FURA-2. The experiments were conducted with luminiscence spectrometer (LS 50 B, Perkin Elmer).
For determining the extent of calcium influx into the cells, maximal intracellular Ca^2+ was induced by lonomycin. This [Ca^2+]i could be reverted to its original value by EGTA. Influx of extracellular calcium via OTRPC4 was demostrated by showing change of the intracellular Ca^2+ concentration by lowering osmolarity by 100 mosmol/l (from 320 mosmol/l to 220 mosmol/l). The hypotonic solution led to an increase in [Ca^2+]i which could be quenched by EGTA. Half of the [Ca^2+] increasing effect of hypotonic solution could be blocked by addition of LOE908 (Embaco A, Romanin C, Birke F W, Kukovetz W R, Groschner K: Inhibition of a store-operated Ca2+ entry pathway in human endothelial cells by the isoquinoline derivative LOE 908. British Journal of Pharmacology (1996) 119 702-706) (100 μM) (FIG. 10).

[3] = tested on: chloride channels activated by a change in volume; experiment: Perforated patch measurement of currents triggered by hypotonic extracellular solution in control cells; type: cell-based; details: 50 μM
Experimental: (§1) Because of the rapid “run-down” of the ion fluxes, the other experiments were carried out using the so-called perforated patch method. Measured in standard extracellular solution, the current-voltage curve, measured by applying voltage ramps, show an outwardly rectifying form with a reverse potential of about 0 mV (FIG. 6). When the Na^+- and Ca^2+-ions were removed from the extracellular solution, the inward flux disappeared and the reverse potential moved into the negative area. The average ion fluxes at −100 and +100 mV measured with the aid of ramp protocols were −12.8±1.1 and +32.2±2.7 pA/pF, respectively (n=17, Cm=9.6±5.5 pF).
(§2) Replacing the extracellular standard solution with a solution which contained 100 mM NaCl and 100 mM mannitol (osmolarity: 320 mosmol/l) shifted Er to a more negative potential (−11.2±1.6 mV, n=14), as might be expected from a current carried by cations when the extracellular sodium concentration is reduced (see FIG. 6). Moreover, the inwardly and outwardly directed current components were reduced (−7.0±0.8 and 22.7±2.7 pA/pF at −100 and 100 mV, respectively) (see FIG. 6). The use of a hypoosmolar solution (215 mosmol/l) led, after a delay of a few seconds (about 18 seconds on average) to an increase in both the inwardly and outwardly directed currents (FIG. 7). This increase reached its maximum after 50 seconds, on average. […]

OTRPC4 [4] = target: T1, OTRPC4; experiment: Perforated patch measurement of cation currents triggered by hypotonic solution in OTRPC4-expressing cells; type: cell-based, murine; details: 50 μM
Experimental: as §1, §2

T1 sequence (Q9EPK8 whole entry): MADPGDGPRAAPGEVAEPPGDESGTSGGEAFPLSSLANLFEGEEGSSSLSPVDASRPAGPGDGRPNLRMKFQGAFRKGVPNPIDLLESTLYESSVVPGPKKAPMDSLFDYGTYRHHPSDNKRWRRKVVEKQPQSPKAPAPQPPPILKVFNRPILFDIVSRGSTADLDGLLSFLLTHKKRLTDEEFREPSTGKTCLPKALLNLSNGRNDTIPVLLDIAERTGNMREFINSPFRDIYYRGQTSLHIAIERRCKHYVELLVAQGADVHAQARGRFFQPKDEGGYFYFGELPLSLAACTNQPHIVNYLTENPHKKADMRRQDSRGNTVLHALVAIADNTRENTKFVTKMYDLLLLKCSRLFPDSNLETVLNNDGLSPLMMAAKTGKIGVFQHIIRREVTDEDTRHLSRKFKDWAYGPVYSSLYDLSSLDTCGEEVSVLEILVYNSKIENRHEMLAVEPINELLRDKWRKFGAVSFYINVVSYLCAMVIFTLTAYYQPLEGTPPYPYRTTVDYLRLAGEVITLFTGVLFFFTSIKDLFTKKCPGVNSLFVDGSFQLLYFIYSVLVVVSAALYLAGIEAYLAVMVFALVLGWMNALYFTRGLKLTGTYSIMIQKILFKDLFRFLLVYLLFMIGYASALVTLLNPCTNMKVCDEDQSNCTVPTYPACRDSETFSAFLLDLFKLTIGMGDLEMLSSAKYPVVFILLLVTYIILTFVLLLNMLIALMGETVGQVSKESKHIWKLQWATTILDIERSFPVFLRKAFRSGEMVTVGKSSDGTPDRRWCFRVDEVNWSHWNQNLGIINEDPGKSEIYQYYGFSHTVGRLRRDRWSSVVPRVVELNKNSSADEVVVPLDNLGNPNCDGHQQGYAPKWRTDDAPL

[Cl][Gd]([Cl])[Cl] [GdCl3] was tested, and the “effect on the influx of calcium into OTRPC4-expression cells triggered by hypoosmolarity” value (OTRPC4 [1]; 1 mM, HEK293 cells expressing OTRPC4) was “no effect”.
For C/C=C(/C)C(=O)O[C@H]1C(C)=C2[C@H]([C@@H]1OC(=O)CCCCCCC)[C@@](C)(OC(C)=O)C[C@H](OC(=O)CCC)[C@@]1(O)[C@H]2OC(=O)[C@@]1(C)O [thapsigargin], the “amplitude of the FURA-2 signal triggered by the hypotonic medium after emptying the intracellular stores” value (OTRPC4 [1]; 5 μM, added previously, OTRPC4-expressing cells) was “did not alter the amplitude”.
In the case of COc1cc2c(cc1OC)C(C(C(=O)N(CCc1ccc(OC)c(OC)c1OC)CCc1ccc(OC)c(OC)c1OC)c1ccccc1)=NCC2 (centres unmarked) [LOE908], the “block of the [Ca2+] increasing effect of hypotonic solution” value (OTRPC4 [2]) is reported as “Half”.
For C=C(C)[C@]12C[C@@H](C)[C@@]34O[C@](Cc5ccccc5)(O[C@@H]1[C@@H]3C=C(COC(=O)Cc1ccc(O)c(OC)c1)C[C@]1(O)C(=O)C(C)=C[C@@H]41)O2 [resiniferatoxin], the “effect on cells which expressed OTRPC4” value (OTRPC4 [1]) was “no effect”.
For [Cl][La]([Cl])[Cl] [LaCl3], the “inhibition of the influx of calcium into OTRPC4-expression cells triggered by hypoosmolarity” value (OTRPC4 [1]; 100 μM, HEK293 cells expressing OTRPC4) was “about 50%”.
In the case of COc1cc(CNC(=O)CCCC/C=C/C(C)C)ccc1O [capsaicin], the “effect on cells which expressed OTRPC4” value (OTRPC4 [1]) is reported as “no effect”.
In the case of O=C(O)c1cc([N+](=O)[O-])ccc1NCCCc1ccccc1 [NPPB], the “activation of currents triggered by hypotonic extracellular solution in control cells” value [3] is reported as “inhibited completely” and the “cation currents in OTRPC4-expressing cells triggered by hypotonic solution” value (OTRPC4 [4]) is reported as “unaffected”.
